Results reported in US20210401782A1, “COMPOSITION FOR PREVENTING AND TREATMENT OF STROKE” (NEUROBIOGEN CO.,LTD, priority 2018, published 2021).

What was measured:
Type in all cases: in vivo, SD rat
rodent stroke model [1] = test: cylinder test in rodent stroke model; details: Stroke+KDS2010: 10 mg/kg orally once a day, no rehabilitation; compared to the control group
Experimental: (§1) Light stimuli was applied to the posterior limb of the internal capsule of a 9 week-old SD rat to produce a white-matter cerebral infarction animal model.
(§2) Specifically, the animal was anesthetized with an anesthetic drug, a combination of ketamine (ketamine hydrochloride, 100 mg/kg) and xylazine (7 mg/kg), and a hole was drilled at a position of 2.0 mm rearwards and 3.1 mm laterally outwards from the skull bregma using stereotaxis, and an optical fiber (inner diameter of 62.5 μm, outer diameter of 125 μm) was inserted to a depth of 7.2 mm to target the posterior limb of the internal capsule. Rose bengal (20 mg/kg) was injected into the tail vein, and optical stimulation was conducted using a 3.7 mW green laser for 1.5 minutes through an optical fiber. Then, the optical fiber was removed and the operation was completed, ketoprofen (2 mg/kg) was injected for pain control, and then the animal was allowed to recover. The control group was injected with 0.9% saline, instead of rose bengal. […]
For the cylinder test, animals were placed in a transparent cylinder (20 cm in diameter and 30 cm in height) to observe which limb was used more when supporting the cylinder wall with the forelimbs. A total of 20 movements were recorded, and the ratio of the use of the forelimb corresponding to the stroke and the opposite forelimb was calculated during the total number of cycles.

rodent stroke model [2] = test: neurofiber staining, size of the infarction in an internal capsule; details: 10 mg/kg orally once a day
Experimental: as §1
Specifically, the animal was anesthetized with an anesthetic drug, a combination of ketamine (ketamine hydrochloride, 100 mg/kg) and xylazine (7 mg/kg), and a hole was drilled at a position of 2.0 mm rearwards and 3.1 mm laterally outwards from the skull bregma using stereotaxis, and an optical fiber (inner diameter of 62.5 μm, outer diameter of 125 μm) was inserted to a depth of 7.2 mm to target the posterior limb of the internal capsule. Rose bengal (20 mg/kg) was injected into the tail vein, and optical stimulation was conducted using a 3.7 mW green laser for 1.5 minutes through an optical fiber. Then, the optical fiber was removed and the operation was completed, ketoprofen (2 mg/kg) was injected for pain control, and then the animal was allowed to recover. The control group was injected with 0.9% saline, instead of rose bengal.
Rats in the group administered with KDS2010 as a drug were orally administered with a solution of KDS2010 in saline at a concentration of 10 mg/kg once a day (FIG. 2A).
Rats in the rehabilitation-trained group practiced a single-pellet reaching task (SPRT) for 20 minutes daily for 3 weeks after stroke surgery. […]

rodent stroke model [3] = test: single-pellet reaching task (SPRT) in rodent stroke model; details: Stroke+rehab+KDS2010: 10 mg/kg orally once a day plus rehabilitation training; white-matter cerebral infarction rat model
Experimental: as §1, §2
For the single-pellet reaching task, an acrylic box (45 cm×13 cm×40 cm) having a 1 cm vertical slit on the front wall thereof was used, and a sugar pellet was placed in front of the slit. […] The proportion of the number of pellets remaining in the mouth, without dropping, to 20 pellets in total was calculated.

With C[C@H](NCc1ccc(-c2ccc(C(F)(F)F)cc2)cc1)C(N)=O [KDS2010, (S)-2-(((4′-trifluoromethylbiphenyl-4-yl)methyl)amino)propanamide methanesulfonate] the “motor function using the cylinder test” value (rodent stroke model [1]) was “significantly recovered motor function”, the “size of the infarction in the internal capsules” value (rodent stroke model [2]; Stroke+KDS: drug-administered group, no rehabilitation, versus control group) was “considerably larger size of the infarction” and the “size of the infarction in the internal capsules” value (rodent stroke model [2]; Stroke+rehab+KDS: rehabilitation training in combination with drug administration) was “further reduced infarction sizes”. The “motor function through single-pellet reaching task” value (rodent stroke model [3]) was “recovered motor function to an almost normal level”.
